Results on one molecule are retold here after US11845774B2, “Sterol derivatives and preparation method and uses thereof” (BEIJING PEKING UNIVERSITY WBL BIOTECH CO., LTD., priority 2011, dated 2023).

Assay [1] has as its target T1, HMG-CoA reductase (rat liver microsomes) (Rattus norvegicus, UniProt P51639).
T1 construct: taking out liver of male rat, washing with KESD buffer solution; from tissue; host or cells: liver of male rat (microsomal fraction, glycerol/37 °C treatment, 35-50% ammonium sulfate fraction)
T1 sequence (P51639 1-887): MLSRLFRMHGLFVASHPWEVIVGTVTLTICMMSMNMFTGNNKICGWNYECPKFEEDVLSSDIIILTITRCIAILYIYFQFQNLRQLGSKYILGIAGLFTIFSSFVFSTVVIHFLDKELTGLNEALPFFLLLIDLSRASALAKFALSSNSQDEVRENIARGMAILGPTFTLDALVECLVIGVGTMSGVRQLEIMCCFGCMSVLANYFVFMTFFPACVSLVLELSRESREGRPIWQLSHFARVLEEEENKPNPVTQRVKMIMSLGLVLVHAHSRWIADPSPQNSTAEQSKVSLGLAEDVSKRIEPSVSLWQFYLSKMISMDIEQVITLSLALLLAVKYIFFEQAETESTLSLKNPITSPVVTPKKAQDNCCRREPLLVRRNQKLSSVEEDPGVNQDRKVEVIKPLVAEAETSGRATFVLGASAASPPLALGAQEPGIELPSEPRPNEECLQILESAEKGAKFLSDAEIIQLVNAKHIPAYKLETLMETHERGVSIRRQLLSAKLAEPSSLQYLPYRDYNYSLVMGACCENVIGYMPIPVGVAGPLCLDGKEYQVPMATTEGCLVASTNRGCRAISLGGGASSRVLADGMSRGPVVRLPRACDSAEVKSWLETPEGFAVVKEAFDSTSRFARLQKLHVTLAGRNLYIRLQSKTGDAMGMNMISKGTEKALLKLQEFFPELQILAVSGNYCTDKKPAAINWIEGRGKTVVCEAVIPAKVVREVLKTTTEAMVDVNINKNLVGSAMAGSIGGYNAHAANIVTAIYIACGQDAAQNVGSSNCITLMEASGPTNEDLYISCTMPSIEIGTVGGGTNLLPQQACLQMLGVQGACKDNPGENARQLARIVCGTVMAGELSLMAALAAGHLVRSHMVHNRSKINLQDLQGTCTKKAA
Kind of assay: Test of activity of inhibiting HMG-CoA reductase (rate of decline of OD340). Format: biochemical. The settings on record: for Slope (rate of decline of OD340): blank control slope 16.0. The protocol:
Rat liver microsomes (HMG-CoA reductase), could be commercially available or prepared by the following preparation method: taking out liver of male rat, washing with KESD buffer solution, centrifuging under 1200 g for 15 minutes, collecting supernatant, then centrifuging under 105,000 g twice, 90 minutes for each time, and collecting centrifugation deposit. The centrifugation deposit was added with 8.3% of glycerol, heated with 37° C. bath for 1 hour. The crude product of rat liver microsomes was purified with saturated ammonium sulfate, and 35-50% of purified fraction was collected. The purified fraction obtained could be stored in −80° C. refrigerator.
Compound of Formula II was dissolved in 75% ethanol solution, with initial concentration of 8.0 mg/mL, and diluted in gradient manner, to reach 4.0 mg/mL, 2.0 mg/mL, 1.0 mg/mL; lovastatin was used as positive control, dissolved with 75% ethanol solution to reach concentration of 2.0 mg/mL; in the test system, total volume was 250 μL, concentrations of ingredients were separately: potassium chloride 200 mM, potassium dihydrogen phosphate 160 mM, ethylenediamine tetraacetic acid 4 mM, dithiothreitol 10 mM, […] and 3-hydroxy-3-methylglutary coenzyme A as two substrates separately had concentrations of: 200 μM and 50 μM, pH6.8, 30 μL of enzyme was added, 4 test groups were separately added with 10 μL of new compound solutions with different concentrations, the positive control group was added with 10 μL of lovastatin solution, the blank control group was added with 10 μL of 75% ethanol solution, and dynamitic changes of OD340 were detected with Versamax ELISA at 37° C. condition. The rate of decline of OD340 (expressed in slope value) as detected within 5 minutes was used to evaluate the activity of HMG-CoA reductase, and then to evaluate the activity of enzyme inhibitor and the results were shown in Table 2.

The test system of assay [2] is mice lymphoma cell YAC-1. Kind of assay: MTT test of inhibiting cancer cells, YAC-1. Format: cell-based. The settings on record: Mus musculus, 72 hours, FIG. 5, read-out: IC50 value, growth of YAC-1. The protocol:
(§1) Cancer cells of exponential growth phase were inoculated on 96-well plate, 2×10^4 cells/well, added with drug until final drug concentrations were: 500, 250, 125, 62.5, 31.25, 15.625 and 7.8125 μg/mL, cultured at 37° C. in 5% CO2 cell culture incubator for 72 hours, then added with MTT, 10 μL/well, incubated in dark at 37° C. for 4 hours, culture medium was removed, 150 μL of DMSO or acidified isopropanol was added, vibrated for 5 minutes, and then OD values were measured under wavelength of 570 nm. This was repeated for 3 times, and a blank control was set. These cell strains used the same culture medium, i.e., RPMI1640 culture medium containing 10% fetal bovine serum and 1% double antibody (penicillin and steptomycin).
(§2) Calculation Formula: Cell survival rate=(OD value of test group/OD value of control group)×100%.

In assay [3] the test system is human tissue lymphoma cell U937. The assay can be described thus: MTT test of inhibiting cancer cells, U937. Format: cell-based. To be noted: U-937, 72 hours, FIG. 7, read-out: IC50 value, growth of U937. The protocol: as §1, §2
Where [4] appears, read: final concentration in system 40 μg/mL.
Setting [5] is: final concentration in system 80 μg/mL.
Setting [6] is: final concentration in system 160 μg/mL.
Setting [7] is: final concentration in system 320 μg/mL.

On to `C[C@@H](C(O)C1OC2C[C@H]3C4=CC=C5CC(O)CC[C@]5(C)[C@H]4CC[C@]3(C)[C@H]2[C@@]1(C)O)C(C)(C)O` (some centres unmarked) [Compound of Formula II, 16,22-epoxy-ergosta-5,7-dien-3,20,23,25-tetraol], for which the Inhibition rate stood at 14.4% in assay [1] (setting [4]), 29.4% in assay [1] (setting [5]), 45.6% in assay [1] (setting [6]) and 53.1% in assay [1] (setting [7]). Also, the “Slope (rate of decline of OD340)” value was 13.7 in assay [1] (setting [4]), 11.3 in assay [1] (setting [5]), 8.7 in assay [1] (setting [6]) and 7.5 in assay [1] (setting [7]). Besides, the IC50 (in general, the concentration that gives 50% inhibition) in assay [1] (read-out: IC50 value, inhibition of activity of HMG-CoA reductase (converted)) is approximately 543 µM; in assay [2], approximately 62.5 µg/mL; in assay [3], approximately 50 µg/mL.
